From the NIST ThermoML archive (doi:10.1021/acs.jced.6b00471)
Numbers after ± are expanded uncertainties.

Tests used:
[1] = Liquid; for mass density: 298.15 K, 101.33 kPa, Pycnometric method; for Normal boiling temperature: Ebulliometric method (Recirculating still)
[2] = refractive index (Na D-line) (dimensionless); details: 298.15 K; 101.33 kPa; Liquid; Standard Abbe refractometry

Work on `CCC(C)OC(C)=O` (stereo not given) [1-methylpropyl ethanoate] yielded a mass density [1] of 863.8 ± 0.8 kg/m3, a Normal boiling temperature [1] of 111.97 ± 0.2 °C and a refractive index [2] of 1.3872 ± 0.0007.
In the case of `CC(C)CO` [2-methyl-1-propanol], the mass density [1] is reported as 797.4 ± 0.7 kg/m3, the Normal boiling temperature [1] is reported as 107.68 ± 0.2 °C and the refractive index [2] is reported as 1.3931 ± 0.0007.
`CC(C)(C)O` [2-methylpropan-2-ol] gave a Normal boiling temperature [1] of 82.36 ± 0.2 °C and a refractive index [2] of 1.3857 ± 0.0007.
Work on `CCCCO` [butan-1-ol] yielded a mass density [1] of 805.8 ± 0.7 kg/m3 and a refractive index [2] of 1.397 ± 0.0007.
